The source of these data is US20240174662A1, “SMALL MOLECULE INHIBITORS OF SALT INDUCIBLE KINASES” (Janssen Biotech, Inc., priority 2021, published 2024).

The structures appear in SMILES notation. Several values for one entry are separate records, joined by “and”; a condition that tells them apart may be missing. Equal values may be shown once.

This assay has as its target SIK2 (Homo sapiens (Human), UniProt Q9H0K1). Briefly: SIK2 Enzymatic Assay Version 2 (High ATP). In kind it is biochemical. The note with it: 3 mM ATP and 200 μM HDAC5tide final, ADP-Glo Max luminescence. In short, it runs like this:
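Run at room temperature; SIK2 enzyme at 6 nM (2× final) preincubated with compound 30 min before reaction. ADP formation detected by ADP-Glo Max (2 h reagent, 1 h detection) with luminescence read-out.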

SIK2, sequence (Q9H0K1 whole entry, species assumed): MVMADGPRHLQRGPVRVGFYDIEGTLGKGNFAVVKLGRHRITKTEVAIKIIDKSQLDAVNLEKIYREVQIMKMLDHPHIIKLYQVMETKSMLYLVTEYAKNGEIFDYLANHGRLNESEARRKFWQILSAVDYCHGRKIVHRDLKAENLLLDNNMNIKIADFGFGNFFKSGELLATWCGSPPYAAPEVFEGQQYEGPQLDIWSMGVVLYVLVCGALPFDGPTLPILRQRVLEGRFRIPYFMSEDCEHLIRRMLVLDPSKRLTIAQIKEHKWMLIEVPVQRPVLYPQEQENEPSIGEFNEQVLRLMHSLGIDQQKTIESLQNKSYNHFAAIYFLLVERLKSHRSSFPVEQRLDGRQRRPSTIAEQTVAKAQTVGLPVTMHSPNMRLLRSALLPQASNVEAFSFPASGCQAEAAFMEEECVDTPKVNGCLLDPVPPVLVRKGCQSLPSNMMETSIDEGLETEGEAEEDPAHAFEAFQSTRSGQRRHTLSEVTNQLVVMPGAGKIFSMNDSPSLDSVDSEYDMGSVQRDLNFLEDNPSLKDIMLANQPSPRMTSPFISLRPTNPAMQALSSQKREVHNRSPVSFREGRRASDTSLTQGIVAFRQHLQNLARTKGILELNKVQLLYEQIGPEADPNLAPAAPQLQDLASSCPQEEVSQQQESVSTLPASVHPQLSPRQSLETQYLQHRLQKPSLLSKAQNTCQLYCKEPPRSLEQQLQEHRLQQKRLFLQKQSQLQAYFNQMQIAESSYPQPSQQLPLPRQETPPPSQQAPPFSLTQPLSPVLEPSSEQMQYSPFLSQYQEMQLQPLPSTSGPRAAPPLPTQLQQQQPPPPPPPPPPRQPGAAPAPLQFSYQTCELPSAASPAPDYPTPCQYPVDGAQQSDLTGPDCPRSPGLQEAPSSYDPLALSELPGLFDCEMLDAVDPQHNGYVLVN

In turn, `C[C@H]1CN[C@@H]1COc1cnn(C)c1-c1ccn2nc(NC(=O)C3CC3)cc2c1` [Example 341, N-[5-[2-methyl-4-[[(2S,3S)-3-methylazetidin-2-yl]methoxy]pyrazol-3-yl]pyrazolo[1,5-a]pyridin-2-yl]cyclopropanecarboxamide] yielded an IC50 of 0.0577 µM.

With `CO[C@@H]1CNC[C@@H]1Oc1cnn(C)c1-c1ccn2nc(NC(=O)C3CC3)cc2c1` (single isomer, unassigned) [Example 40, N-(5-(4-(((3*S,4*R)-4-methoxypyrrolidin-3-yl)oxy)-1-methyl-1H-pyrazol-5-yl)pyrazolo[1,5-a]pyridin-2-yl)cyclopropanecarboxamide], the IC50 turned out to be 0.444 µM.

On to `Cc1snc(O[C@H]2CCNC2)c1-c1ccn2nc(NC(=O)C3CC3)cc2c1` [Example 330, N-[5-[5-methyl-3-[(3S)-pyrrolidin-3-yl]oxy-isothiazol-4-yl]pyrazolo[1,5-a]pyridin-2-yl]cyclopropanecarboxamide], for which the half-maximal inhibitory concentration (IC50) stood at 0.0352 µM.

The molecule `Cc1cc(Nc2cc3cc(-c4c(O[C@H]5CCN(C)C5)cnn4C)ccn3n2)nnc1C` [Example 272, N-(5,6-dimethylpyridazin-3-yl)-5-[2-methyl-4-[(3S)-1-methylpyrrolidin-3-yl]oxy-pyrazol-3-yl]pyrazolo[1,5-a]pyridin-2-amine] gave an IC50 of 0.0435 µM.

`Cc1cc(Nc2cc3cc(-c4c(O[C@H]5CCN[C@@H]5C)cnn4C)ccn3n2)nc(C)n1` [Example 442, N-(2,6-dimethylpyrimidin-4-yl)-5-[2-methyl-4-[(2R,3S)-2-methylpyrrolidin-3-yl]oxy-pyrazol-3-yl]pyrazolo[1,5-a]pyridin-2-amine] came in with an IC50 of 0.106 µM.

Take `COC1CNC[C@@H]1Oc1noc(C)c1-c1ccn2nc(NC(=O)C3CC3)cc2c1` (mixture of isomers) [Example 200, (rac-cis)-N-[5-[3-(4-methoxypyrrolidin-3-yl)oxy-5-methyl-isoxazol-4-yl]pyrazolo[1,5-a]pyridin-2-yl]cyclopropanecarboxamide]: the IC50 was 0.0294 µM.

In the case of `Cc1onc(OC[C@@H](N)c2ccccn2)c1-c1ccn2nc(NC(=O)C3CC3)cc2c1` [Example 223, N-[5-[3-[(2S)-2-amino-2-(2-pyridyl)ethoxy]-5-methyl-isoxazol-4-yl]pyrazolo[1,5-a]pyridin-2-yl]cyclopropanecarboxamide], the midpoint of inhibition, the IC50, lay at 0.0307 µM.

`Cc1ncc(Nc2cc3cc(-c4c(O[C@H]5CCN(C)C5)cnn4C)ccn3n2)nc1C` [Example 349, N-(5,6-dimethylpyrazin-2-yl)-5-[2-methyl-4-[(3S)-1-methylpyrrolidin-3-yl]oxy-pyrazol-3-yl]pyrazolo[1,5-a]pyridin-2-amine] came in with an IC50 of 0.0559 µM.

With `Cn1ncc(O[C@H]2CC[C@@H](O)CC2)c1-c1ccn2nc(NC(=O)C3CC3)cc2c1` [Example 404, N-[5-[4-(4-hydroxycyclohexoxy)-2-methyl-pyrazol-3-yl]pyrazolo[1,5-a]pyridin-2-yl]cyclopropanecarboxamide], the IC50 came out at 0.12 µM.

In the case of `CC(=O)N1CC[C@@H]1COc1cnn(C)c1-c1ccn2nc(NC(=O)C3CC3)cc2c1` [Example 56, N-[5-[4-[[(2R)-1-acetylazetidin-2-yl]methoxy]-2-methyl-pyrazol-3-yl]pyrazolo[1,5-a]pyridin-2-yl]cyclopropanecarboxamide], the IC50 is 2.5 µM.

`Cc1cc(Nc2cc3cc(-c4c(OC[C@H]5CCN5)cnn4C)ccn3n2)nc(C(F)(F)F)n1` [Example 273, 5-[4-[[(2R)-azetidin-2-yl]methoxy]-2-methyl-pyrazol-3-yl]-N-[6-methyl-2-(trifluoromethyl)pyrimidin-4-yl]pyrazolo[1,5-a]pyridin-2-amine] gave an IC50 of 0.0181 µM.

Turning to `C[C@@H]1[C@@H](COc2cnn(C)c2-c2ccn3nc(NC(=O)C4CC4)cc3c2)CN1C` (single isomer, unassigned) [Example 41, trans-N-(5-(4-(((2*R,3*S)-1,2-dimethylazetidin-3-yl)methoxy)-1-methyl-1H-pyrazol-5-yl)pyrazolo[1,5-a]pyridin-2-yl)cyclopropanecarboxamide], the IC50 was found to be 0.0146 µM.

The molecule `Cc1cc(Nc2cc3cc(-c4c(OC[C@H]5C[C@H](C)CN5C)cnn4C)ccn3n2)nc(C)n1` [Example 305, N-(2,6-dimethylpyrimidin-4-yl)-5-[4-[[(2R,4S)-1,4-dimethylpyrrolidin-2-yl]methoxy]-2-methyl-pyrazol-3-yl]pyrazolo[1,5-a]pyridin-2-amine] had an IC50 of 0.0161 µM.

As for `CCN1CC[C@@H]1COc1cnn(C)c1-c1ccn2nc(Nc3cc(C)ncn3)cc2c1` [Example 19, 5-[4-[[(2R)-1-Ethylazetidin-2-yl]methoxy]-2-methyl-pyrazol-3-yl]-N-(6-methylpyrimidin-4-yl)pyrazolo[1,5-a]pyridin-2-amine], the IC50 amounted to 0.0012 µM.

Molecule `CN1CC[C@@H]1COc1cnn(C)c1-c1ccn2nc(NC(=O)[C@H]3C[C@@H]3c3ccccc3)cc2c1` (single isomer, unassigned) [Example 156, (1*S, 2*S)—N-[5-[2-methyl-4-[((R)-1-methylazetidin-2-yl)methoxy]pyrazol-3-yl]pyrazolo[1,5-a]pyridin-2-yl]-2-phenyl-cyclopropanecarboxamide] gave an IC50 of 0.0031 µM.

Molecule `Cn1ncc(CO[C@@H]2CNC[C@@H]2F)c1-c1ccn2nc(NC(=O)C3CC3)cc2c1` [Example 188, N-[5-[4-[[(3R,4S)-4-fluoropyrrolidin-3-yl]oxymethyl]-2-methyl-pyrazol-3-yl]pyrazolo[1,5-a]pyridin-2-yl]cyclopropanecarboxamide] gave an IC50 of 0.0077 µM.

For the molecule `Cc1snc(OC[C@H]2CNCCO2)c1-c1ccn2nc(NC(=O)C3CC3)cc2c1` [Example 331, N-[5-[5-methyl-3-[[(2R)-morpholin-2-yl]methoxy]isothiazol-4-yl]pyrazolo[1,5-a]pyridin-2-yl]cyclopropanecarboxamide], 0.0324 µM corresponded to half-maximal inhibition (IC50).

Molecule `[2H]C([2H])([2H])N1CC[C@@H]1COc1cnn(C)c1-c1ccn2nc(Nc3cc(C)nc(C)n3)cc2c1` [Example 290, N-(2,6-dimethylpyrimidin-4-yl)-5-[2-methyl-4-[[(2R)-1-(trideuteriomethyl)azetidin-2-yl]methoxy]pyrazol-3-yl]pyrazolo[1,5-a]pyridin-2-amine] gave an IC50 of under 0.000847 µM.

`Cc1onc(OC[C@H]2CCCN2C)c1-c1ccn2nc(NC(=O)C3CC3)cc2c1` [Example 388, N-[5-[5-methyl-3-[[(2R)-1-methylpyrrolidin-2-yl]methoxy]isoxazol-4-yl]pyrazolo[1,5-a]pyridin-2-yl]cyclopropanecarboxamide]: the IC50 worked out at 0.145 µM.

The molecule `Cc1ccc(Nc2cc3cc(-c4c(OC[C@H]5CCCN5C)cnn4C)ccn3n2)nn1` [Example 287, 5-[2-methyl-4-[[(2R)-1-methylpyrrolidin-2-yl]methoxy]pyrazol-3-yl]-N-(6-methylpyridazin-3-yl)pyrazolo[1,5-a]pyridin-2-amine] registered an IC50 of 0.0372 µM.

`Cc1cc(Nc2cc3cc(-c4c(OCC56CC(CN5)C6)cnn4C)ccn3n2)nc(C)n1` [Example 288, 5-[4-(3-azabicyclo[2.1.1]hexan-4-ylmethoxy)-2-methyl-pyrazol-3-yl]-N-(2,6-dimethylpyrimidin-4-yl)pyrazolo[1,5-a]pyridin-2-amine] registered an IC50 of 0.0168 µM.

In turn, `CO[C@H]1CNC[C@@H]1Oc1cnn(C)c1-c1ccn2nc(NC(=O)C3CC3)cc2c1` (racemic) [Example 421, (rac-trans)-N-[5-[4-(4-methoxypyrrolidin-3-yl)oxy-2-methyl-pyrazol-3-yl]pyrazolo[1,5-a]pyridin-2-yl]cyclopropanecarboxamide] registered an IC50 of 0.116 µM.

As for `CN1CC[C@@H](COc2cnn(C)c2-c2ccn3nc(NC(=O)C4CC4)cc3c2)C1` [Example 396, N-[5-[2-methyl-4-[[(3R)-1-methylpyrrolidin-3-yl]methoxy]pyrazol-3-yl]pyrazolo[1,5-a]pyridin-2-yl]cyclopropanecarboxamide], the IC50 was 0.0605 µM and 0.0932 µM.

Regarding `Cc1cc(Nc2cc3cc(-c4c(OCC(N)C5(C)CC5)cnn4C)ccn3n2)nc(C)n1` (centres unmarked) [Example 309, 5-[4-[2-amino-2-(1-methylcyclopropyl)ethoxy]-2-methyl-pyrazol-3-yl]-N-(2,6-dimethylpyrimidin-4-yl)pyrazolo[1,5-a]pyridin-2-amine], the IC50 amounted to 0.0029 µM.

As to `C[C@@H]1C[C@H](Oc2cnn(C)c2-c2ccn3nc(NC(=O)C4CC4)cc3c2)CN1C` [Example 336, N-[5-[4-[(3S,5R)-1,5-dimethylpyrrolidin-3-yl]oxy-2-methyl-pyrazol-3-yl]pyrazolo[1,5-a]pyridin-2-yl]cyclopropanecarboxamide], the IC50 amounted to 0.0664 µM.

`CCN1CC[C@@H]1COc1cnn(C)c1-c1ccn2nc(Nc3cncc(C)n3)cc2c1` [Example 20, (R)-5-(4-((1-Ethylazetidin-2-yl)methoxy)-1-methyl-1H-pyrazol-5-yl)-N-(6-methylpyrazin-2-yl)pyrazolo[1,5-a]pyridin-2-amine]: the IC50 is under 0.000847 µM.

In turn, `CN1CC[C@@H]1COc1cnn(C)c1-c1ccn2nc(Nc3cnc(C(F)(F)F)cn3)cc2c1` [Example 150, 5-[2-methyl-4-[[(2R)-1-methylazetidin-2-yl]methoxy]pyrazol-3-yl]-N-[5-(trifluoromethyl)pyrazin-2-yl]pyrazolo[1,5-a]pyridin-2-amine] displayed an IC50 of 0.0076 µM.

As for `Cn1ncc(COC2CNCC2(F)F)c1-c1ccn2nc(NC(=O)C3CC3)cc2c1` (racemic) [Example 184, (RS)—N-[5-[4-[(4,4-difluoropyrrolidin-3-yl)oxymethyl]-2-methyl-pyrazol-3-yl]pyrazolo[1,5-a]pyridin-2-yl]cyclopropanecarboxamide], inhibition was half-maximal at 0.0145 µM (IC50).

`CN1C[C@@H](F)[C@H](OCc2cnn(C)c2-c2ccn3nc(NC(=O)C4CC4)cc3c2)C1` [Example 467, N-[5-[4-[[(3R,4R)-4-fluoro-1-methyl-pyrrolidin-3-yl]oxymethyl]-2-methyl-pyrazol-3-yl]pyrazolo[1,5-a]pyridin-2-yl]cyclopropanecarboxamide] came in with an IC50 of 0.113 µM.
